Common to all, as to conditions: Homo sapiens
The subject of test [1] is CCRF-CEM. The test can be described thus: Compound was evaluated for the cytotoxic concentration to inhibit HIV replication in CEM cells. The test is classed as functional.
Test [2] deals with CCRF-CEM. Kind of test: Compound was evaluated for the inhibition of HIV replication using HIV-1 infected CEM cells. The test is classed as functional, cell-based.
In test [3] the test system is CCRF-CEM. The test can be described thus: Compound was evaluated for the inhibition of HIV replication using HIV-2 infected CEM cells. The test is classed as functional, cell-based.
Test [4] has as its system CCRF-CEM. The test can be described thus: Compound was evaluated for the inhibition of HIV replication using HIV-2 infected CEM-TK- cells. The test is classed as functional, cell-based.

With `Cc1cn(C2C=CC(COP(=O)(NC(C)C(=O)OCc3ccccc3)Oc3ccccc3)O2)c(=O)[nH]c1=O` (stereo unspecified), the half-maximal cytotoxic concentration (CC50) (as a rule, the concentration at which the toxic effect on the cells reaches its halfway point) in test [1] was found to be 52000 nM. For the same compound, the results for the EC50 in test [2], in test [3] and in test [4] were 22 nM, 39 nM and 60 nM, respectively.

`Cc1cn([C@H]2C[C@H](N=[N+]=[N-])[C@@H](CO)O2)c(=O)[nH]c1=O` [ZIDOVUDINE] yielded a CC50 in test [1] of more than 100000 nM. Further, the values for the half-maximal effective concentration (EC50) in test [2], in test [3] and in test [4] were 5 nM, 8 nM and more than 100000 nM, respectively.

`Cc1cn([C@H]2C=C[C@@H](CO)O2)c(=O)[nH]c1=O` [STAVUDINE] showed a cytotoxic concentration (CC50) in test [1] of more than 100000 nM. Moreover, the EC50 (usually the concentration needed to bring the measured effect to its halfway point) in test [2] was found to be 160 nM; in test [3] it was 270 nM; in test [4], 25000 nM.

In test [1], `COC(=O)C(C)NP(=O)(OC[C@@H]1C=C[C@H](n2cc(C)c(=O)[nH]c2=O)O1)Oc1ccccc1` (stereo partly specified) showed a CC50 of more than 100000 nM. Moreover, the EC50 in test [2] is 85 nM; in test [3] it was 102 nM; in test [4], 75 nM.

Values taken from ChEMBL document CHEMBL1128916, “Phosphoramidate derivatives of d4T with improved anti-HIV efficacy retain full activity in thymidine kinase-deficient cells” (Bioorg Med Chem Lett, 1996).
